Source: patent US20180125988A1, “TARGETED XTEN CONJUGATE COMPOSITIONS AND METHODS OF MAKING SAME” (AMUNIX OPERATING INC., priority 2014, published 2018)
Where a SMILES comes first, the peptide text is derived from it. [ ]: non-standard residue; d: D form. The star is where a group is joined. Dolaproine = CO[C@@H]([C@@H]1CCCN1)[C@@H](C)C(=O)O; Dil = CC[C@H](C)[C@H](NC)[C@@H](CC(=O)O)OC; X1 = C[C@@H](N*)[C@@H](O)c1ccccc1; NMeV = CN[C@H](C(=O)O)C(C)C

Legend:
[1] = test system: folate receptor-positive KB cell line; assay: CellTiter-Glo anti-proliferation assay, 3xFA(γ),3xMMAE-XTEN on KB cells with or without folic acid competitor; format: cell-based; settings: Homo sapiens, no folic acid competitor
Description: The ability to selectively target and kill cells bearing folate receptors was evaluated. Test articles of free MMAE, a non-targeting 3xMMAE-XTEN conjugate (XTEN linked to toxin) and the folate receptor-targeted 3xFA(γ),3xMMAE-XTEN conjugate were evaluated in a CellTiter-Glo anti-proliferation assay using the folate receptor-positive KB cell line. As culture media contain high folic acid content, KB cells were grown in folic acid-free media containing 10% heat-inactivated fetal calf serum at 37° C., 5% CO2 for at least 7 days prior to the commencement of the cell viability experiment, This medium was also utilized for the execution of the experiment. In brief, KB cells were plated at 10,000 cells per well onto a 96-well microtiter assay plate. KB cells were allowed to adhere to the plate by an overnight incubation at 37° C., 5% CO2. The spent media was then removed and wells designated to contain folic acid competitor received assay medium containing folic acid, while wells not designated to have folic acid competitor received assay medium only. The plate was incubated for 30 min at 37° C., 5% CO2 before the assay media was aspirated and plate washed with assay media. […] After the appropriate incubation period, CellTiter-Glo reagent was added and the plate was read on a luminometer. The IC50 of each test article was determined using a 4 parameter logistic curve fit using GraphPad Prism.

[2] = in Man; cited from earlier work

Compound	IC50 [1] [nM]	half-life [2]
CC[C@H](C)[C@@H]([C@@H](CC(=O)N1CCC[C@H]1[C@H](OC)[C@@H](C)C(=O)N[C@H](C)[C@@H](O)c1ccccc1)OC)N(C)C(=O)[C@@H](NC(=O)[C@@H](NC)C(C)C)C(C)C [MMAE, monomethyl auristatin E] (H-[NMeV]V[Dil][Dolaproine]-X1)	0.8	
pyroGlu-His-Trp-Ser-Tyr-Gly-Leu-Arg-Pro-Gly-NH2 [LHRH]		less than 4 minutes
